Measured values as given in PubChem BioAssay AID1259411 (Chemical Carcinogenesis Research Information System (CCRIS), 2018).
The source made the active and inactive calls. How the calls were made is not given here.

Tested on: rodent carcinogenicity bioassays, tumor incidence
Test: CCRIS carcinogenicity studies
In short: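 NCI-built, expert-reviewed records of carcinogenicity and related test outcomes (mutagenicity, tumor promotion/inhibition) compiled from published and report sources, historical span 1985-2011, not updated.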

Measured: carcinogen call

CCN(CC)N=O
active: Species: DOG, Route: ORAL, Tumor Site: Type of Lesion: LIVER active; positive | Species: FISH, Route: ORAL, Tumor Site: Type of Lesion: LIVER active; positive | Species: FISH, Strain/Sex: GUPPY POECILIA RETICULATA/MALE, FEMALE, Route: IMMERSION, Dose: 0, 29.4 MG/L IN WATER FOR 28 D (STUDY DURATION: 6 MONTHS), Tumor Site: Type of Lesion: LIVER: MULTIFOCAL HEPATOMA, CHOLANGIOMA active; positive | Species: FISH, Strain/Sex: MEDAKA/MALE,FEMALE, Route: IMMERSION, Dose: 0, 390 PPM IN AQUEOUS BATH FOR 48 HR (STUDY DURATION: 7 MO), Tumor Site: Type of Lesion: LIVER: TUMOR active; positive | Species: FISH, Strain/Sex: SHASTA RAINBOW TROUT/FEMALE, Route: ORAL, Dose: 0, 4, 70, 275, 550, 1100 PPM IN DIET FOR 12 MO (STUDY DURATION: 18 MO), Dose: 0, 4, 70, 275, 550, 1100 PPM IN DIET FOR 12 MO (STUDY DURATION: 18 MO), Tumor Site: Type of Lesion: LIVER: TUMOR active; positive | Species: FISH, Strain/Sex: SHASTA RAINBOW TROUT/MALE, Route: ORAL, Dose: 0, 4, 70, 275, 550, 1100 PPM IN DIET FOR 12 MO (STUDY DURATION: 18 MO), Dose: 0, 4, 70, 275, 550, 1100 PPM IN DIET FOR 12 MO (STUDY DURATION: 18 MO), Tumor Site: Type of Lesion: LIVER: TUMOR active; positive | Species: GUINEA PIG, Route: ORAL, SUBCUTANEOUS, Tumor Site: Type of Lesion: LIVER active; positive | Species: HAMSTER, Route: DERMAL, Tumor Site: Type of Lesion: NASAL CAVITY active; positive | Species: HAMSTER, Route: INHALATION, Tumor Site: Type of Lesion: TRACHEA, LUNG active; positive | Species: HAMSTER, Route: INTRAPERITONEAL, Tumor Site: Type of Lesion: TRACHEA, NASAL CAVITY, BRONCHI, LIVER, Tumor Site: Type of Lesion: TRACHEA, NASAL CAVITY, BRONCHI, LIVER active; positive | Species: HAMSTER, Route: ORAL, Tumor Site: Type of Lesion: TRACHEA, LUNG, NASAL CAVITY, BRONCHI, LIVER, FORESTOMACH, ESOPHAGUS, Tumor Site: Type of Lesion: TRACHEA, LUNG, NASAL CAVITY, BRONCHI, LIVER, FORESTOMACH, ESOPHAGUS active; positive | Species: HAMSTER, Route: SUBCUTANEOUS, Tumor Site: Type of Lesion: NASAL CAVITY, BRONCHI, TRACHEA, LUNG, LIVER, FORESTOMACH, ESOPHAGUS, Tumor Site: Type of Lesion: NASAL CAVITY, BRONCHI, TRACHEA, LUNG, LIVER, FORESTOMACH, ESOPHAGUS active; positive | Species: HAMSTER, Strain/Sex: SYRIAN/FEMALE, Route: INTRATRACHEAL, Dose: 0, 1 MG IN 0.1 ML PHOSPHATE BUFFER 15/WK FOR 4 MO (STUDY DURATION: 237 D), Tumor Site: Type of Lesion: LUNG: ADENOMA OR CARCINOMA, TRACHEA: PAPILLOMA active; positive | Species: HAMSTER, Strain/Sex: SYRIAN/MALE, Route: INTRATRACHEAL, Dose: 0, 0.1, 0.5 MG IN PHOSPHATE BUFFER 1/WK FOR 15 WK (TOTAL DOSE; 1.5; 7.5 MG) (STUDY DURATION: LIFESPAN), Dose: 0, 0.1, 0.5 MG IN PHOSPHATE BUFFER 1/WK FOR 15 WK (TOTAL DOSE; 1.5; 7.5 MG) (STUDY DURATION: LIFESPAN), Tumor Site: Type of Lesion: TRACHEA: PAPILLOMA, LUNG: ADENOMA, SQUAMOUS CARCINOMA, ADENOCARCINOMA, LIVER: HEPATOCELLULAR CARCINOMA, Tumor Site: Type of Lesion: TRACHEA: PAPILLOMA, LUNG: ADENOMA, SQUAMOUS CARCINOMA, ADENOCARCINOMA, LIVER: HEPATOCELLULAR CARCINOMA active; positive | Species: MONKEY, Route: ORAL, INTRAPERITONEAL, Tumor Site: Type of Lesion: LIVER active; positive | Species: MOUSE, Route: DERMAL, Tumor Site: Type of Lesion: NASAL CAVITY active; positive | Species: MOUSE, Route: ORAL, Tumor Site: Type of Lesion: LIVER, ESOPHAGUS, LUNG, FORESTOMACH, Tumor Site: Type of Lesion: LIVER, ESOPHAGUS, LUNG, FORESTOMACH active; positive | Species: MOUSE, Route: SUBCUTANEOUS, INTRAPERITONEAL, Tumor Site: Type of Lesion: LUNG active; positive | Species: MOUSE, Strain/Sex: AKR/MALE, Route: ORAL, Dose: 0, 100 PPM IN DRINKING WATER FOR DURATION OF STUDY (STUDY DURATION: 150 D), Tumor Site: Type of Lesion: LUNG: TUMOR active; positive | Species: MOUSE, Strain/Sex: B6C3F1/FEMALE, Route: INTRAPERITONEAL, Dose: 0, 1.5, 3 UG IN 0.01 ML TRIOCTANOIN/G BW INITIAL DOSE GIVEN ON DAY 1 OF AGE AND 3 SUBSEQUENT DOSES GIVEN 3, 9 AND 15 DAY, Dose: 0, 1.5, 3 UG IN 0.01 ML TRIOCTANOIN/G BW INITIAL DOSE GIVEN ON DAY 1 OF AGE AND 3 SUBSEQUENT DOSES GIVEN 3, 9 AND 15 DAY, Tumor Site: Type of Lesion: LIVER: ADENOMA, CARCINOMA, LUNG: TUMORS active; positive | Species: MOUSE, Strain/Sex: B6C3F1/FEMALE, Route: INTRAPERITONEAL, Dose: 0, 1.5, 3 UG IN 0.01 ML TRIOCTANOIN/G BW INITIAL DOSE GIVEN ON DAY 15 OF AGE AND 3 SUBSEQUENT DOSES GIVEN 3, 9 AND 15 DA, Dose: 0, 1.5, 3 UG IN 0.01 ML TRIOCTANOIN/G BW INITIAL DOSE GIVEN ON DAY 15 OF AGE AND 3 SUBSEQUENT DOSES GIVEN 3, 9 AND 15 DA, Tumor Site: Type of Lesion: LIVER: ADENOMA, CARCINOMA, LUNG: TUMORS active; positive | Species: MOUSE, Strain/Sex: B6C3F1/FEMALE, Route: INTRAPERITONEAL, Dose: 0, 1.5, 3 UG IN 0.01 ML TRIOCTANOIN/G BW INITIAL DOSE GIVEN ON DAY 42 OF AGE AND 3 SUBSEQUENT DOSES GIVEN 3, 9 AND 15 DA, Dose: 0, 1.5, 3 UG IN 0.01 ML TRIOCTANOIN/G BW INITIAL DOSE GIVEN ON DAY 42 OF AGE AND 3 SUBSEQUENT DOSES GIVEN 3, 9 AND 15 DA, Tumor Site: Type of Lesion: LIVER: ADENOMA, CARCINOMA, LUNG: TUMORS active; positive | Species: MOUSE, Strain/Sex: B6C3F1/MALE, Route: INTRAPERITONEAL, Dose: 0, 0.02, 0.07 UMOL/G BW IN 10 µL/G BW TRIOCTANOIN ONCE AT 12 D OF AGE (STUDY DURATION: 9 MO), Dose: 0, 0.02, 0.07 UMOL/G BW IN 10 µL/G BW TRIOCTANOIN ONCE AT 12 D OF AGE (STUDY DURATION: 9 MO), Tumor Site: Type of Lesion: LIVER: HEPATOMA active; positive | Species: MOUSE, Strain/Sex: B6C3F1/MALE, Route: INTRAPERITONEAL, Dose: 0, 1.5, 3 UG IN 0.01 ML TRIOCTANOIN/G BW INITIAL DOSE GIVEN ON DAY 1 OF AGE AND 3 SUBSEQUENT DOSES GIVEN 3, 9 AND 15 DAY, Dose: 0, 1.5, 3 UG IN 0.01 ML TRIOCTANOIN/G BW INITIAL DOSE GIVEN ON DAY 1 OF AGE AND 3 SUBSEQUENT DOSES GIVEN 3, 9 AND 15 DAY, Tumor Site: Type of Lesion: LIVER: ADENOMA, CARCINOMA, LUNG: TUMORS active; positive | Species: MOUSE, Strain/Sex: B6C3F1/MALE, Route: INTRAPERITONEAL, Dose: 0, 1.5, 3 UG IN 0.01 ML TRIOCTANOIN/G BW INITIAL DOSE GIVEN ON DAY 15 OF AGE AND 3 SUBSEQUENT DOSES GIVEN 3, 9 AND 15 DA, Dose: 0, 1.5, 3 UG IN 0.01 ML TRIOCTANOIN/G BW INITIAL DOSE GIVEN ON DAY 15 OF AGE AND 3 SUBSEQUENT DOSES GIVEN 3, 9 AND 15 DA, Tumor Site: Type of Lesion: LIVER: ADENOMA, CARCINOMA, LUNG: TUMORS active; positive | Species: MOUSE, Strain/Sex: B6C3F1/MALE, Route: INTRAPERITONEAL, Dose: 0, 1.5, 3 UG IN 0.01 ML TRIOCTANOIN/G BW INITIAL DOSE GIVEN ON DAY 42 OF AGE AND 3 SUBSEQUENT DOSES GIVEN 3, 9 AND 15 DA, Dose: 0, 1.5, 3 UG IN 0.01 ML TRIOCTANOIN/G BW INITIAL DOSE GIVEN ON DAY 42 OF AGE AND 3 SUBSEQUENT DOSES GIVEN 3, 9 AND 15 DA, Tumor Site: Type of Lesion: LIVER: ADENOMA, CARCINOMA, LUNG: TUMORS active; positive
